The values that follow come from PMC8760323, “Single-chain tandem macrocyclic peptides as a scaffold for growth factor and cytokine mimetics” (Communications Biology, 2022).

Assay [1] deals with HEL cells. As to the kind of experiment: Phosphokinase array (TPO signal cascade). It is filed as cell-based, human. Particulars: 5.4 nM rhTPO or 1:1000 diluted TMP-PA8 supernatant, 20 min. The protocol: The TPO signal cascade was analyzed using the Proteome Profiler Human Phosphokinase Array Kit (R&D Systems). Briefly, 1 × 10^6 HEL cells in a 6-well cell culture dish were starved in RPMI 1640 medium for 24 h. The starved cells were stimulated by 5.4 nM rhTPO or 1:1000 diluted TMP-PA8 containing a C. glutamicum supernatant for 20 min, rinsed once with PBS, and lysed with 200 μL of lysis buffer 17 supplemented with a protease inhibitor cocktail. Lysates were analyzed using the Proteome Profiler Human Phosphokinase Array Kit (R&D Systems) according to the manufacturer’s instructions. Chemiluminescence was detected using Amersham Imager 600 (Cytiva).

Assay [2] has as its system HEL cells. As to the kind of experiment: Phospho-CREB ELISA. The assay is classed as cell-based, human. As for the experimental part:
Here, 100,000 HEL cells were seeded on a 96-well cell culture plate in RPMI 1640 medium and incubated overnight for starvation. The starved cells were stimulated by rhTPO or TMP-PA8 for 20 min, rinsed once with PBS, and lysed with lysis buffer 17 supplemented with a protease inhibitor cocktail. The phosphorylation level of CREB was assessed using phospho-CREB (Ser133) and the Total CREB ELISA kit (RayBio) according to the manufacturer’s instructions. The amounts of phospho-CREB and total CREB were quantified by measuring absorbance at 450 nm, and the phospho-CREB level was calculated as (absorbance of pCREB)/(absorbance of total CREB).

On to “rhTPO: recombinant human TPO (Peprotech)”, for which the “phosphorylation of STAT3, STAT5, Erk1/2 and CREB compared with unstimulated cells” value in the assay with HEL cells [1] was “enhanced”. The “Normazlied pCREB/CREB” value in the assay with HEL cells [2] (7.375 pM, replicate 1) worked out at 1.252; with HEL cells [2] (7.375 pM, replicate 2), 0.9311; in the assay on HEL cells [2] (7.375 pM, replicate 3) it was 0.9649; in the assay on HEL cells [2] (22.12 pM, replicate 1), 1.113; with HEL cells [2] (22.12 pM, replicate 2), 1.1408; in the assay on HEL cells [2] (22.12 pM, replicate 3), 1.274. Further, the “Normazlied pCREB/CREB” value is given as 1.03 with HEL cells [2] (66.37 pM, replicate 1); 1.312 in the assay with HEL cells [2] (66.37 pM, replicate 2); 1.353 in the assay with HEL cells [2] (66.37 pM, replicate 3); 1.208 in the assay on HEL cells [2] (199.1 pM, replicate 1); 1.421 in the assay with HEL cells [2] (199.1 pM, replicate 2); 1.637 in the assay with HEL cells [2] (199.1 pM, replicate 3). Also, the “Normazlied pCREB/CREB” value in the assay with HEL cells [2] (597.4 pM, replicate 1) is reported as 1.281; in the assay with HEL cells [2] (597.4 pM, replicate 2) it was 1.5026; in the assay with HEL cells [2] (597.4 pM, replicate 3) it was 1.479; in the assay with HEL cells [2] (1.79211e-9 M, replicate 1) it was 1.452; in the assay with HEL cells [2] (1.79211e-9 M, replicate 2), 1.237; with HEL cells [2] (1.79211e-9 M, replicate 3) it was 1.5195. The “Normazlied pCREB/CREB” value in the assay on HEL cells [2] (5.37634e-9 M, replicate 1) was found to be 1.523; in the assay on HEL cells [2] (5.37634e-9 M, replicate 2) it was 0.9969; with HEL cells [2] (5.37634e-9 M, replicate 3), 1.102. Also, in the assay on HEL cells [2] (at concentrations of 0.1-1 nM), the “promotion of CREB phosphorylation” value was 1.5 fold.
